Reference: US20090246208A1, “METHODS FOR PREVENTING AND TREATING CANCER METASTASIS AND BONE LOSS ASSOCIATED WITH CANCER METASTASIS” (Novartis AG, priority 2006, published 2009)

B1: M-CSF (Q20A, V78K): double mutant of M-CSF testing solvent accessible residues in the central portion of helices A and C (protein, UniProt P09603 33-554, looked up, variant Q20A V78K)
Macrophage colony-stimulating …: EEVSEYCSHMIGSGHLQSLARLIDSQMETSCQITFEFVDQEQLKDPVCYLKKAFLLVQDIMEDTMRFRDNTPNAIAIKQLQELSLRLKSCFTKDYEEHDKACVRTFYETPLQLLEKVKNVFNETKNLLDKDWNIFSKNCNNSFAECSSQDVVTKPDCNCLYPKAIPSSDPASVSPHQPLAPSMAPVAGLTWEDSEGTEGSSLLPGEQPLHTVDPGSAKQRPPRSTCQSFEPPETPVVKDSTIGGSPQPRPSVGAFNPGMEDILDSAMGTNWVPEEASGEASEIPVPQGTELSPSRPGGGSMQTEPARPSNFLSASSPLPASAKGQQPADVTGTALPRVGPVRPTGQDWNHTPQKTDHPSALLRDPPEPGSPRISSLRPQGLSNPSTLSAQPQLSRSHSSGSVLPLGELEGRRSTRDRRSPAEPEGGPASEGAARPLPRFNSVPLTDTGHERQSEGSFSPQLQESVFHLLVPSVILVLLAVGGLLFYRWRRRSHQEPQRADSPLEQPEGSPLTQDDRQVELPV

Experiments:
[1] = tested on: osteoclasts differentiated from human bone marrow CD34+ cells; experiment: Differentiated osteoclast activity, OsteoLyse Assay Kit (Human Collagen) (FIGS. 18, 19); type: cell-based; conditions: added on day 15, supernatant sampled on day 17
Method: The human bone marrow CD34+ cells (Biowhittaker catalog number 2M-101 A, 3×10^5 cells/vial) were induced to differentiate into osteoclasts under the experimental conditions described here. On Day 1, CD34+ cells were thawed from one frozen vial into 10 ml of media (Alpha MEM with 10% FCS, 1×Pen Strep and 1×fungizone) The cells were washed once and re-suspended in 2 ml of media and plate into onto the OsteoLyse plate (OsteoLyse™ Assay Kit (Human Collagen), Cambrex) at 100 ul per well. On day 2, without removing the original media, add to each well 50 ul of 4×CSF-1 to 30 ng/ml final concentration and 50 ul of 4×RANKL (sRANKL, Chemicon catalog #GF091, 10 ug/package) to final concentration of 100 ng/ml. On day 7, add to each well 50 ul of 5×RANKL to final concentration of 100 ng/ml. On day 15, antibodies (either Chir-RX1 or control antibody) or Zometa were added at the indicated concentrations. On day 17, 10 ul of supernatant of the cell culture was sampled and mixed with 200 μl of Fluorophore Releasing Reagent in each well of the black 96-well assay plate (included in the OsteoLyse Assay Kit).

[2] = tested on: osteolytic damage caused by tumor growth at the bony site; experiment: Zometa dose-response study, osteolysis caused by tumor growth at the bony site (x-ray osteolysis score, FIG. 14); type: in vivo, mice
Source text: This Example establishes the dose-dependent, anti-resorptive effects of Zometa (zoledronate) in an animal model (FIG. 14). […] Osteolysis score based on x-ray image in last-day of study (FIG. 14):
(§1) 1=Equivocal or minimal lesion with normal cortex architecture;
(§2) 2=Definite lytic lesion with minimal cortex/architecture disruption
(§3) 3=Large lesion(s) with cortex/Architecture disruption
(§4) 4=Gross destruction with no preserved architecture

MDA-MB-231Luc cells = experiment: Combination study: intratibial MDA-MB-231Luc cells in Nu/Nu mice, Faxitron x-ray osteolysis scoring (FIGS. 15-17); type: in vivo
Method: Two weeks after intratibial inoculation of 6×10^5 MDA-MB-231Luc cells, Nu/Nu mice were treated with 5A1/5B4 (10 mg/kg once weekly), Zometa (0.03 mg/kg twice weekly) or both antibody and bisphosphonate. Bone lesions were monitored weekly by Faxitron analysis (x-ray technology), and at the end of the study, all animals were subjected to a final x-ray, and the images collected and distributed for scoring of the severity of lesions.
Mean osteolysis scores were calculated from 1) an average of scores from 3 separate volunteer scorers and 2) a group average (originally 10 animals/group).
Osteolysis score based on x-ray image in last day of study:
as §1, §2, §3, §4

[3] = tested on: M-CSF biological activity; conditions: cited from earlier work
MCSF-R = conditions: cited from earlier work

Molecule | differentiated osteoclast activity [1] | dose response of anti-resorptive effect ([2]; mice treated with increasing concentrations of Zometa) | osteolytic damage caused by tumor growth at the bony site (osteolysis score based on x-ray image) ([2]; ≧0.03 mg/kg Zometa, last day of study, FIG. 14) | osteolytic damage caused by tumor growth at the bony site (mean osteolysis scores, FIG. 16) (MDA-MB-231Luc cells; 0.03 mg/kg Zometa, 10 mg/kg anti-MCSF antibody, combination regimen, last day of study) | treating osteolysis (single agents) (MDA-MB-231Luc cells; antibody 10 mg/kg once weekly, Zometa 0.03 mg/kg twice weekly, treatment from two weeks after inoculation) | severity of lesions in representative faxitron images (FIG. 17) (MDA-MB-231Luc cells; compared to untreated animals) | biological activity, lower than native M-CSF [3] | receptor-binding activity (MCSF-R)
O=P(O)(O)C(O)(Cn1ccnc1)P(=O)(O)O [Zometa, zoledronate] | inhibits differentiated osteoclast activity in a dose-dependent manner | a dose response effect was observed | inhibited the osteolytic damage | inhibited the osteolytic damage | effective in treating osteolysis | relatively minor lesions | – | –
B1 | – | – | – | – | – | – | 8-10 fold | correspondingly lower
